Patent US20240269291A1, “Transcutol-Polyol-Active Agent Ternary Complex, Pharmaceutical Composition for Topical Use Comprising Same, Method for Obtaining Same and Use Thereof in Different Pathologies” (FUNDACIÓN GAIKER, priority 2021, published 2024)

Columns and labels:
[1] = safety index of 100 times, cited from earlier work
[2] = printed as negative log P; cited from earlier work
sick people = test: Application of the cream on sick people; details: in vivo
Protocol: In the numerous tests that were carried out on sick people, it has been observed that the introduction of a correct concentration of polyphenols (with “correct” being understood as the fact that there are 200 mg of the polyphenol in each 5 g application of pharmaceutical composition) in a solution for topical use (preferably a cream) has very beneficial effects in treating at least the following pathologies: subcutaneous inflammations such as fasciitis and fasciosis, tendon inflammation or irritation (tendonitis), carpal tunnel inflammation, varicose vein reduction, joint inflammation and blows and bruises.

Row | Structure (SMILES) | recommended limit via the dermal route ([1]; dermal route) [mg/kg] | recommended limit via the oral route ([1]; oral route) [mg/kg] | log P [2] | crossing of the blood-brain barrier (sick people)
1 | CCOCCOCCO [transcutol, 2-(2-Ethoxyethoxy) ethanol] | 20 | 10 | ~0.5 | 
2 | C[C@@H]1O[C@@H](OC[C@H]2O[C@@H](Oc3c(-c4ccc(O)c(O)c4)oc4cc(O)cc(O)c4c3=O)[C@H](O)[C@@H](O)[C@@H]2O)[C@H](O)[C@H](O)[C@H]1O [rutin] |  |  |  | able to cross the blood-brain barrier
